From patent US10736872B1, “Pharmaceutical mixture to treat statin induced vascular calcification” (priority 2019, dated 2020)

Key:
Type in all cases: cell-based
[1] = test system: human aortic smooth muscle cells (AoSMC); test: Alkaline phosphatase activity assay in AoSMC; conditions: for increase of ALP activity / increase of ALP activity compared to control / increase in ALP activity compared to control: 1 mcM statin; for increase of ALP activity compared to control / increase in ALP activity compared to control: four days; for increase of ALP activity compared to control: FIG. 4A; for increase in ALP activity compared to control: pro-calcification condition (5 mM b-GP and 25 mcM forskolin), FIG. 4B; for decrease in ALP activity: 5 mM b-GP, 25 mcM forskolin
Experimental: Alkaline phosphatase activity assay in AoSMC: AoSMC were plated in 96 well plates and grown to confluent layer. […] Cells were washed with phosphate buffered saline (PBS) and supplemented with 50 mcl/well 25 mcg/ml 4-MUP (fluorescent ALP substrate, Sigma) in alkaline buffer (Sigma)/1% Triton X100 for 1 h at room temperature. Fluorescence was measured at 360/450 nm.
Statistical analysis: Results in figures are means±standard deviation (SD) from three or more repetitions from the most representative of at least two independent experiments. Differences between samples were estimated with a two-tailed Student's t-test using Excel software (Microsoft) and accepted as significant at p levels less than 0.05. The results in FIGS. 4A and 4B and FIGS. 5A and 5B are expressed as percentage of supplemented controls and presented as means±SD from six or more repetitions from the most representative of at least two independent experiments.
The calcification process of AoSMC was evaluated by the activity of cellular alkaline phosphatase (ALP). The study assessed the effects of Mixture 1 (micronutrient combination containing ascorbate) and ascorbate individually under standard (5% FBS/DMEM) and pro-calcification conditions (5% FBS/DMEM supplemented with 5 mM beta-glycerophosphate (b-GP) and 25 mcM forskolin—FIG. 4B).

[2] = test system: human aortic smooth muscle cells (AoSMC); test: Calcium accumulation in extracellular matrix of AoSMC
Experimental: Cell viability was monitored with MTT assay. […] Plant-derived micronutrients suppress monocyte adhesion to cultured human aortic endothelial cell layer by modulating its extracellular matrix composition. J Cardiovasc Pharmacol 2008; 52:55-65. After four washes with PBS, ECM layers were solubilized by incubation in 0.6N HCl for 48 hours at 37° C. Calcium content in solubilized samples was measured with TECO Ca assay according to the manufacturer's protocol. […] The calcification process of AoSMC was evaluated by the activity of cellular alkaline phosphatase and calcium accumulation in the cell-produced extracellular matrix (FIG. 1).

[3] = test system: human aortic SMC; test: Expression of osteoblast markers in AoSMC (immunoassay); conditions: 100 mcM ascorbic acid, 5 mM beta-glycerophosphate and 25 mcM forskolin, 4 weeks, FIG. 3A
[4] = test system: human dermal fibroblasts (DF); test: Expression of osteoblast markers in human dermal fibroblasts (immunoassay); conditions: 100 mcM ascorbic acid, 5 mM beta-glycerophosphate and 25 mcM forskolin, 4 weeks, FIG. 3B
[5] = plain 5% FBS/DMEM, five days, FIG. 5A
[6] = pro-calcification conditions (5 mM b-GP, 25 mcM forskolin), five days, FIG. 5B
[7] = 300 mcM ascorbate, regular growth medium, FIG. 1
[8] = 100 mcM ascorbate in the presence of simvastatin, without forskolin, FIG. 2A

## CC[C@H](C)C(=O)O[C@H]1C[C@H](O)C=C2C=C[C@H](C)[C@H](CC[C@@H](O)C[C@@H](O)CC(=O)O)[C@H]21 [pravastatin]
[1]; [5]
  increase of ALP activity: 60%
[1]; plain 5% FBS/DMEM
  increase of ALP activity compared to control: 39%
[1]
  increase in ALP activity compared to control: 25%
[1]; [6]
  increase of ALP activity: 25%

## CC[C@H](C)C(=O)O[C@H]1CCC=C2C=C[C@H](C)[C@H](CC[C@@H]3C[C@@H](O)CC(=O)O3)[C@H]21 [mevastatin]
[1]; [5]
  increase of ALP activity: 61%
[1]; plain 5% FBS/DMEM
  increase of ALP activity compared to control: 25%
[1]
  increase in ALP activity compared to control: 39%
[1]; [6]
  increase of ALP activity: 41%
[2]; 1 mM mevastatin, with 25 mcM forskolin, FIG. 2B, control 1.35 mcg/well
  calcium accumulation: 1.8 mcg/well

## O=C1O[C@H]([C@@H](O)CO)C(O)=C1O [ascorbic acid, L-ascorbic acid]
[1]; 300 mcM ascorbate in the presence of 1 mcM simvastatin, plain 5% FBS/DMEM, five days, FIG. 5A
  ALP activity after addition of ascorbate: decreased to control level
[1]; 300 mcM ascorbate, mevastatin containing samples, five days, FIG. 5B
  decrease in ALP activity: 37%
[1]; 300 mcM ascorbate, pravastatin containing samples, five days, FIG. 5B
  decrease in ALP activity: 24%
[1]; [7]
  decrease of alkaline phosphatase activity: 80%
[1]; 300 mcM ascorbate, simvastatin containing samples, five days, FIG. 5B
  decrease in ALP activity: 36%
[1]; 300 mcM ascorbic acid in the absence of statins, five days, FIG. 5B
  decrease in ALP activity: 29%
[1]; 300 mcM ascorbic acid in the presence of 1 mcM mevastatin, plain 5% FBS/DMEM, five days, FIG. 5A
  decrease of statin-stimulated ALP activity: 29%
[1]; 300 mcM ascorbic acid in the presence of 1 mcM pravastatin, plain 5% FBS/DMEM, five days, FIG. 5A
  decrease of statin-stimulated ALP activity: 30%
[1]; 300 mcM ascorbic acid, no statin, plain 5% FBS/DMEM, five days, FIG. 5A
  decrease of alkaline phosphatase activity: about 43%
[3]
  expression of all tested osteogenic markers: significantly reduced
[2]; 100 mcM ascorbate added in the presence of mevastatin, with forskolin, FIG. 2B, to below control values
  decrease of calcium accumulation: 19%
[2]; [8]
  accumulated calcium: 0.2 mcg/well
  decrease of accumulated calcium: 54%
[2]; [7]
  decrease of extracellular Ca accumulation by AoSMC: 20%
[4]
  expression of all tested osteogenic markers: significantly reduced

## CCC(C)(C)C(=O)O[C@H]1C[C@@H](C)C=C2C=C[C@H](C)[C@H](CC[C@@H]3C[C@@H](O)CC(=O)O3)[C@H]21 [simvastatin]
[1]; [5]
  increase of ALP activity: 57%
[1]
  increase in ALP activity compared to control: 22%
[1]; [6]
  increase of ALP activity: 30%
[2]; simvastatin, without forskolin, FIG. 2A
  increase of calcium accumulation in AoSMC layers: 23%
